{"source": "patent US20260355330A1", "about": "“CELL PENETRATING PEPTIDES AND USES THEREOF” (VECTIOPEP OÜ, priority 2022, published 2026)", "key": {"CHO-K1 cells [1]": {"tested_on": "CHO-K1 cells", "experiment": "Delivery of reporter mRNA with CPPs in cell culture (luciferase luminescence 24 h post-transfection)", "format": "cell-based", "how_it_was_run": "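CHO-K1 cells (10,000/well) transfected in 10% FBS DMEM with 0.1 μg firefly luciferase mRNA complexed with CPP at 3:1 charge ratio (peptide excess). Luminescence read in lysates 24 h later, normalised to BCA total protein (RLU/mg).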"}, "CHO-K1 cells [2]": {"tested_on": "CHO-K1 cells", "experiment": "Comparison of reporter levels in cells post-transfection of pDNA or mRNA delivered by CPPs", "format": "cell-based", "settings": "in words, FIG. 2", "method": "FIG. 2: Comparison of reporter levels in cells post-transfection of pDNA or mRNA delivered by CPPs (P14, NF55 and NF71; relative light units normalised to total protein in the cell lysate (RLU/mg)). Naked mRNA and untreated cells (UT) were used as controls.\nAdherent CHO-K1 cells were grown in Dulbecco's Modified Eagle's Medium (DMEM), which were supplemented with 0.1 mM non-essential amino acids, 1.0 mM sodium pyruvate, 100 U/ml penicillin, and […]. For complete media, 10% (final) fetal bovine serum (FBS) was added. Cells were maintained in a humidified incubator at 37 °C, 5% CO2. Cell viability and confluence was assessed daily and the cell density was reduced regularly. For cell counting, we used the CytoSMART cell counter accompanied by 0.4% trypan blue staining prior measurement. The multi-well plates with cell cultures used for experiments were incubated in a humidified incubator at 37 °C, 5% CO2.\nFor in vitro experiments 0.1 μg of nucleic acid (plasmid DNA (pDNA) or mRNA) was used per 96-well plate well. For CPP/NA complex formation, the diluted NA was mixed with CPP in water. Complexes were formed based on the theoretical charge ratio (CR) of positive charges from the peptide in excess to the negative charges from nucleic acid backbone, at charge ratio 3:1 with peptide in excess. […]\nFor reporter luminescence (expressed from firefly luciferase encoding mRNA or plasmid pDNA) assessment in adherent cell culture, 10,000 cells per 96-well plate well were seeded in 100 μl of media one day prior to transfection. […]\n24 hours post-transfection, the media was aspirated, cells were washed with 1×PBS, and 30 μl of lysis buffer (0.1% Triton X100 in 1×PBS) was added. […] From the lysate, 20 μl was transferred to a black frame white well 96-well plate for luminescence measurement after addition of substrate luciferin (PerkinElmer) in buffer. The luminescence signal was detected with GloMax® 96 microplate luminometer equipped with GloMax® 1.9.2 software (Promega). […]"}, "[3]": {"settings": "in words; previously reported; cited from earlier work"}, "[4]": {"settings": "in words; previously reported; cited from earlier work", "remark": "listed apart in the source"}, "[5]": {"tested_on": "liver, spleen, lung, kidney, heart and thymus of Balb/c mice", "experiment": "Biodistribution of reporter levels post-transfection of mRNA or pDNA with CPPs in vivo (tissue homogenate)", "method": "FIG. 3: Biodistribution of reporter levels post-transfection of mRNA or pDNA with NFs or PFs CPPs in vivo. Reporter gene product levels were evaluated from the whole tissue homogenates collected post mortem. Results are shown as the fold change to mRNA or pDNA treated mice.\nThe transfection complexes (CPP/mRNA) were formed using 10 μg of mRNA mixed with each peptide at indicated charge ratios (CRs) in MQ water in a final volume of 100 μl. CRs were calculated theoretically and account for both the positive charges of the peptide and negative charges of the nucleic acid. The transfection complexes (CPP/mRNA and CPP/pDNA) were formed using 50 μg of mRNA mixed with each peptide at indicated charge ratios (CRs) in MQ water in a final volume of 168 μl. The complexes were incubated for 30 minutes at room temperature and then mixed with equal volume of 10% glucose (resulting in a final solution of 5% glucose in a total volume of 200 μl for 10 μg dose groups and 336 μl for 50 μg dose groups) and immediately injected intravenously via the tail vein.\nThe reporter gene (luciferase) expression levels were evaluated from the tissue homogenate post mortem 16-24 h after single injection.\nIn order to determine to which organs in vivo mRNAs may be delivered to with NickFect or PepFect CPPs, mRNA complexes with NF55, NF71 and PF14 were formed and injected through the tail vein of Balb/c mice (FIG. 3A). The organs were harvested 24 hours after the single injection and reporter signal was measured from whole tissue homogenates. The biodistribution of reporter levels was measured in liver, spleen, lung, kidney, heart and thymus.\nIn order to compare the biodistribution profiles between harvested organs when using either mRNA or pDNA as cargo, NF424 was used to transfect these 2 types of nucleic acids in vivo (FIG. 3B and Table 4)."}, "[6]": {"settings": "mRNA delivery, i.v. tail vein, 24 h after single injection, FIG. 3: fold change to mRNA or pDNA treated mice"}}, "note": "“Also recorded” adds a separate entry of the source.", "data": [{"substance": "NF71: SEQ ID NO: 14; HHYHHGO*ILLKALKALAKAIL; control/comparator construct", "values": [{"measurement": "Average RLU/mg (reporter levels post-transfection of mRNA)", "setting": "CHO-K1 cells [1]; firefly luciferase mRNA, 0.1 μg per well, charge ratio 3:1, serum containing media, 24 h, RLU normalised to total protein in lysate", "result": "3 505 987 RLU/mg"}, {"measurement": "Efficiency of mRNA transfection/delivery", "setting": "CHO-K1 cells [1]; in words, FIG. 1 / Table 2, cell culture", "result": "not efficient for mRNA delivery"}, {"measurement": "Efficiency of mRNA transfection (parallel pDNA/mRNA comparison)", "setting": "CHO-K1 cells [2]; mRNA cargo", "result": "not effective tools for mRNA transfection/delivery; also recorded: not an efficient delivery vector for mRNA"}, {"measurement": "Efficiency of pDNA transfection (parallel pDNA/mRNA comparison)", "setting": "CHO-K1 cells [2]; pDNA cargo", "result": "very efficient transfection reagents for pDNA delivery"}, {"measurement": "siRNA delivery efficiency", "setting": "[3]", "result": "very efficient for siRNA and miRNA delivery; also recorded: very efficient for siRNA and miRNA transfections; also recorded: the most efficient, even more efficient than NF55"}, {"measurement": "miRNA delivery efficiency", "setting": "[4]", "result": "very efficient for siRNA and miRNA delivery; also recorded: very efficient for siRNA and miRNA transfections; also recorded: the most efficient in vivo"}, {"measurement": "Organ distribution of mRNA delivery", "setting": "[5]; in words, mRNA cargo", "result": "delivered mRNA mostly into the spleen, with very low transfection levels seen in other organs"}, {"measurement": "Reporter level, Liver", "setting": "[5]; [6]", "result": 8}, {"measurement": "Reporter level, Lung", "setting": "[5]; [6]", "result": 6}, {"measurement": "Reporter level, Spleen", "setting": "[5]; [6]", "result": 124}]}]}
